Patent US12023390B2, “Isomerically pure 18F-labelled tetrahydrofolates” (MERCK PATENT GMBH, priority 2017, dated 2024)
One block for each compound: values may come before it.

Experiments:
[1] = biological target: FR-alpha (Homo sapiens, UniProt P15328); assay: Selectivity for FR-alpha versus oxidized folic acid derivative (summary statement)
[2] = biological target: Folate Receptor (Homo sapiens, UniProt P15328); settings: cited from earlier work
[3] = tested on: FR-positive KB cells; assay: Cell uptake and internalization using FR-positive KB cells; assay type: cell-based
Protocol: (§1) In order to investigate FR-specific cell uptake and internalization, cell uptake and internalization of 6R-[^18F]1 and 6S-[^18F]1 were carried out using FR-positive KB cells. Cell uptake increased constantly over time for both diastereoisomers resulting in an uptake of about 60% (calculated per 0.3 mg of protein) of total added radioactivity after 3 h of incubation at 37° C. (FIG. 22).

[4] = biological target: T1, D4 (FR-β) (Homo sapiens, UniProt P14207); assay: Cell uptake and internalization in FR-β transfected CHO cells (D4); assay type: cell-based
T1 construct: expressed in transfected cells; host or cells: CHO cells (D4)
T1 sequence (P14207 17-230): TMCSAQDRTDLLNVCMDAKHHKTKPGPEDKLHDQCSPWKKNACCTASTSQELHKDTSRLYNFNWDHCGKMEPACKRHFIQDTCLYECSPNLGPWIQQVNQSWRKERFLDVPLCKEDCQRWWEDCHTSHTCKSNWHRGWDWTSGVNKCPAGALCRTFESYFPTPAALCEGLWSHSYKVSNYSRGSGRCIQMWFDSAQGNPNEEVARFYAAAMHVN
Protocol: (§2) The uptake and internalization of the oxidized (^18F-AzaFol) and reduced ^18F-folates (6S-isomer and 6R-isomer of ^18F-5-Me-Aza-THF) in D4 and RT16 cells which express the FR-α and FR-β, […] was studied. Both cell lines were kindly provided by Larry Matherly Wayne State University, Detroit, U.S.; Golani et al., J Med Chem, 2016, 59, 7856.
When using D4 cells that express the FR-β, the uptake of ^18F-AzaFol and the 6S-isomer of the reduced radiotracer reached approximately 70% after 1 h incubation and 80% after 3 h incubation. The internalized fraction of ^18F-AzaFol and the 6S-isomer of the reduced version was 20% and 12%, respectively, after 1 h incubation. These numbers increased slightly when the incubation time was extended to 3 h. […] No change was observed after additional two hours of incubation.

[5] = Distribution coefficient (log D7.4), shake flask method; assay type: physicochemical; settings: n-octanol / phosphate buffer pH 7.4, room temperature
[6] = biological target: T2, RT16 (FR-α) (Homo sapiens, UniProt P15328); assay: Cell uptake and internalization in FR-α transfected CHO cells (RT16); assay type: cell-based
T2 construct: expressed in transfected cells; host or cells: CHO cells (RT16)
T2 sequence (P15328 25-234): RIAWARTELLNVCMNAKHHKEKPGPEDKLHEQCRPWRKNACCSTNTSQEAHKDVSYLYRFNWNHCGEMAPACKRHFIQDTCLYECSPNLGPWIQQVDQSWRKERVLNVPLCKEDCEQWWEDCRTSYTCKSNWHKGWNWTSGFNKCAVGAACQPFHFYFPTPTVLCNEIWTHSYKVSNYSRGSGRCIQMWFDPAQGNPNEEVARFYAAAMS
Protocol: as §2
The internalized fraction of the radiotracers reached 8-10% after 1 h and increased slightly up to 9-12% after 3 h incubation.

[7] = tested on: KB tumor-bearing mice; assay: Biodistribution studies in KB tumor-bearing mice
[8] = tested on: KB tumor xenografts
[9] = Metabolite studies / in vivo stability (radio-UPLC of blood plasma, liver, urine); parameters: species or system mice; settings: samples taken p.i.
Protocol: as §1
The folate radiotracer 6S/6R-[^18F]5 (1:1 ratio, 53.7-52.3 MBq; 0.62-1.15 nmol) were intravenously injected into mice in order to determine the in vivo stability of the tracers. […] Ice-cold methanol containing 10 mg/mL 2-mercaptoethanol and 0.025% (v/v) ammonium hydroxide was added to the blood plasma, homogenized liver and urine in order to precipitate the proteins.^6 After centrifugation, the supernatants of the blood plasma, liver and urine samples were analyzed by radio-UPLC (FIG. 4).

[10] = KB tumor-bearing mice, 30 min p.i.
[11] = KB tumor-bearing mice, 30 min p.i., ratio
[12] = KB tumor-bearing mice, 60 min p.i.
[13] = KB tumor-bearing mice, 60 min p.i. & Folic Acid (100 μg 10 min prior)
[14] = KB tumor-bearing mice, 60 min p.i., ratio
[15] = KB tumor-bearing mice, 90 min p.i.
[16] = KB tumor-bearing mice, 90 min p.i., ratio
[17] = KB tumor-bearing mice, 90 min p.i., listed as 6R-form
[18] = KB tumor-bearing mice, 90 min p.i., listed as 6R-isomer

Chain of FR-alpha (P15328 25-234, species assumed): as the sequence (P15328 25-234) above
Chain of Folate Receptor (P15328 25-234): as above

- fold higher selectivity for FR-alpha than the respective oxidized folic acid derivative [1]: 50 fold
Compound: CN1c2c(nc(N)[nH]c2=O)NCC1CNc1ccc(C(=O)N[C@@H](CCC(=O)O)C(=O)O)c([18F])n1 (stereo partly shown) [3′-aza-2′-[^18]fluoro-5-methyltetrahydrofolate]

Compound: Nc1nc2ncc(CNc3ccc(C(=O)N[C@H](CCC(=O)NC[C@H](N)C(=O)N[C@@H](CC(=O)O)C(=O)N[C@@H](CS)C(=O)O)C(=O)O)cc3)nc2c(=O)[nH]1 [EC20]
- Kd [2]: 12 nM

- uptake into D4 cells (in words) ([4]; D4 (FR-β) cells): very low
- internalized fraction ([4]; D4 cells, 1 h incubation): about 1%
- uptake ([4]; D4 cells, 1 h incubation): 3%
- logD7.4 [5]: −4.6 ± 0.1
- uptake into RT16 cells (in words) [6]: higher uptake
- Biodistribution: Blood [7, 10]: 3.13 ± 0.31 % IA/g
- Biodistribution: Bone [7, 10]: 2.73 ± 0.14 % IA/g
- Biodistribution: Feaces [7, 10]: 12.2 ± 3.54 % IA/g
- Biodistribution: Gall Bladder [7, 10]: 37.5 ± 11.7 % IA/g
- Biodistribution: Heart [7, 10]: 2.75 ± 0.33 % IA/g
- Biodistribution: Intestines [7, 10]: 7.68 ± 1.28 % IA/g
- Biodistribution: KB Tumor [7, 10]: 13.3±1.80 % IA/g
- Biodistribution: Kidneys [7, 10]: 34.5 ± 2.45 % IA/g
- Biodistribution: Liver [7, 10]: 14.3 ± 1.36 % IA/g
- Biodistribution: Lung [7, 10]: 3.37 ± 0.32 % IA/g
- Biodistribution: Muscle [7, 10]: 1.54 ± 0.13 % IA/g
- Biodistribution: Salivary glands [7, 10]: 7.16 ± 0.51 % IA/g
- Biodistribution: Spleen [7, 10]: 8.25 ± 0.96 % IA/g
- Biodistribution: Stomach [7, 10]: 2.20 ± 0.23 % IA/g
- Tu-to-blood [7, 11]: 4.27 ± 0.61
- Tu-to-liver [7, 11]: 0.94 ± 0.14
- Biodistribution: Kidneys ([7]; KB tumor-bearing mice, 30 min p.i., listed as 6R-form): 34.5±2.45 % IA/g
- Biodistribution: Liver ([7]; KB tumor-bearing mice, 30 min p.i., listed as 6R-tracer): 14.3±1.36 % IA/g
- Biodistribution: Blood [7, 12]: 2.16 ± 0.25 % IA/g
- Biodistribution: Bone [7, 12]: 2.43 ± 0.10 % IA/g
- Biodistribution: Feaces [7, 12]: 17.8 ± 5.09 % IA/g
- Biodistribution: Gall Bladder [7, 12]: 39.0 ± 22.17 % IA/g
- Biodistribution: Heart [7, 12]: 2.38 ± 0.18 % IA/g
- Biodistribution: Intestines [7, 12]: 6.93 ± 1.06 % IA/g
- Biodistribution: KB Tumor [7, 12]: 18.1 ± 2.86 % IA/g
- Biodistribution: Kidneys [7, 12]: 27.3 ± 3.07 % IA/g
- Biodistribution: Liver [7, 12]: 14.1 ± 0.80 % IA/g
- Biodistribution: Lung [7, 12]: 2.80 ± 0.29 % IA/g
- Biodistribution: Muscle [7, 12]: 1.36 ± 0.15 % IA/g
- Biodistribution: Salivary glands [7, 12]: 6.49 ± 0.93 % IA/g
- Biodistribution: Spleen [7, 12]: 8.25 ± 0.88 % IA/g
- Biodistribution: Stomach [7, 12]: 2.35 ± 0.49 % IA/g
- Biodistribution: Blood [7, 13]: 1.52 ± 0.43 % IA/g
- Biodistribution: Bone [7, 13]: 1.51 ± 0.34 % IA/g
- Biodistribution: Feaces [7, 13]: 15.2 ± 1.75 % IA/g
- Biodistribution: Gall Bladder [7, 13]: 26.5 ± 16.6 % IA/g
- Biodistribution: Heart [7, 13]: 1.60 ± 0.46 % IA/g
- Biodistribution: Intestines [7, 13]: 5.23 ± 0.73 % IA/g
- Biodistribution: KB Tumor [7, 13]: 3.41 ± 0.88 % IA/g
- Biodistribution: Kidneys [7, 13]: 4.80 ± 1.94 % IA/g
- Biodistribution: Liver [7, 13]: 9.64 ± 1.55 % IA/g
- Biodistribution: Lung [7, 13]: 1.73 ± 0.43 % IA/g
- Biodistribution: Muscle [7, 13]: 1.05 ± 0.42 % IA/g
- Biodistribution: Salivary glands [7, 13]: 2.61 ± 0.70 % IA/g
- Biodistribution: Spleen [7, 13]: 3.89 ± 0.40 % IA/g
- Biodistribution: Stomach [7, 13]: 2.02 ± 0.52 % IA/g
- Tu-to-blood [7, 14]: 8.47 ± 1.62
- Tu-to-kidney [7, 14]: 0.67 ± 0.14
- Tu-to-liver [7, 14]: 1.29 ± 0.18
- Biodistribution: Blood [7, 15]: 1.92 ± 0.19 % IA/g
- Biodistribution: Bone [7, 15]: 3.53 ± 0.90 % IA/g
- Biodistribution: Feaces [7, 15]: 13.1 ± 6.07 % IA/g
- Biodistribution: Gall Bladder [7, 15]: 56.7 ± 13.2 % IA/g
- Biodistribution: Heart [7, 15]: 2.39 ± 0.47 % IA/g
- Biodistribution: Intestines [7, 15]: 8.01 ± 2.72 % IA/g
- Biodistribution: KB Tumor [7, 15]: 23.9 ± 2.74 % IA/g
- Biodistribution: Kidneys [7, 15]: 29.8 ± 7.46 % IA/g
- Biodistribution: Liver [7, 15]: 16.8 ± 3.58 % IA/g
- Biodistribution: Lung [7, 15]: 2.92 ± 0.53 % IA/g
- Biodistribution: Muscle [7, 15]: 1.48 ± 0.31 % IA/g
- Biodistribution: Salivary glands [7, 15]: 7.31 ± 1.17 % IA/g
- Biodistribution: Spleen [7, 15]: 13.0 ± 4.14 % IA/g
- Biodistribution: Stomach [7, 15]: 2.51 ± 0.42 % IA/g
- Tu-to-blood [7, 16]: 12.5 ± 1.46
- Tu-to-liver [7, 16]: 1.46 ± 0.26
- Biodistribution: Kidneys [7, 17]: 29.8±7.46 % IA/g
- Biodistribution: Liver [7, 17]: 16.8±3.58 % IA/g
- Biodistribution: Salivary glands [7, 17]: 7.31±1.17 % IA/g
- Biodistribution: KB Tumor [7, 18]: 23.9±2.74 % IA/g
- Biodistribution: Liver [7, 18]: 16.8±3.58 % IA/g
- Biodistribution: Spleen [7, 18]: 13.0±4.14 % IA/g
- Specificity of tumor binding ([7]; blocking by pre-injection of folic acid): 85%
- factor of increase of tumor-to-kidney ratio ([7]; from 30 min p.i. to 90 min p.i.): 2.1
- in vivo stability [9]: Only intact parent compounds were found
Compound: 6R-3′-aza-2′-[^18F]fluoro-5-MTHF [6R-[^18F]1]
- internalized activity ([3]; 37° C.): around 8%
- cell uptake (% of total added radioactivity) ([3]; 3 h incubation at 37° C., calculated per 0.3 mg of protein): about 60%
- PET/CT: KB tumor xenograft uptake ([8]; already 1 h p.i.): High KB tumor xenograft uptake
- PET/CT: blocking studies, uptake in all FR-positive tissues ([8]; folic acid injected 10 minutes prior to radiotracer): remarkably reduced uptake
